Consider 15 substances from EP0385712B1, “A peptide for use in the manufacture of a composition for prevention or treatment of a condition susceptible to treatment with a platelet aggregation inhibition agent” (ASAHI KASEI KOGYO KABUSHIKI KAISHA, priority 1989, dated 1994).

In this series the test system is rat, Wister strain. The series is described as follows: Acute toxicity in rat, intravenous. It counts as in vivo. The settings on record: body weight 80 - 90 g, 80 µg/kg intravenously in the tail, solution in 0.1 M aqueous sodium acetate containing 0.1 % bovine serum albumin. The protocol:
A solution of each of the following compounds in 0.1 M aqueous sodium acetate containing 0.1 % bovine serum albumin is administered into a rat, Wister strain, body weight 80 - 90 g, 80 µg/kg, intraveneously in the tail.
On to desalanyl- [Asu^2,⁷] - c-CGRP, for which the “Acute toxicity (deaths)” value is given as “No deaths were observed”. With “desalanyl-deamino- [Asn³, Asp¹⁴, Gly²³] -h -α-CGRP”, the “Acute toxicity (deaths)” value is recorded as “No deaths were observed”. As for “desalanyl-deamino- [Asn³, Asp¹⁴, Phe¹⁵] -h -α-CGRP”, the entry is “No deaths were observed”. In the case of “desalanyl-deamino- [Asn³, Glu¹⁴, Gly²³] -h -α-CGRP”, the “Acute toxicity (deaths)” value was “No deaths were observed”. As for “desalanyl-deamino- [Asn³, Glu¹⁴, Phe¹⁵] -h -α-CGRP”, the entry is “No deaths were observed”. Take “desalanyl-deamino- [Asn³, Phe¹⁵, Gly²³] -h -α-CGRP”: the “Acute toxicity (deaths)” value is reported as “No deaths were observed”. With desalanyl-deamino- [Asp¹⁴ ] -h -α-CGRP, the “Acute toxicity (deaths)” value is “No deaths were observed”. As to desalanyl-deamino- [Glu¹⁴ ] -h -α-CGRP, the “Acute toxicity (deaths)” value is given as “No deaths were observed”. As to desalanyl-deamino-c-CGRP, the “Acute toxicity (deaths)” value was “No deaths were observed”. In the case of desalanyl-deamino-h-α-CGRP, the “Acute toxicity (deaths)” value is “No deaths were observed”. Consider desalanyl-deamino-h-β-CGRP, for which the “Acute toxicity (deaths)” value is given as “No deaths were observed”. As for h - β- CGRP, the entry is “No deaths were observed”; as for p - CGRP, “No deaths were observed”; as for r - α - CGRP, “No deaths were observed”.

Take r - β- CGRP: the “Acute toxicity (deaths)” value is “No deaths were observed”.
